Experimental data taken from patent EP4483904A1, “POLYOXOMETALATES AS MEMBRANE CARRIERS” (Universität Wien, priority 2023, dated 2025).
“And” between values parts separate entries of the source, which are not always exact repeats. Equal values may be shown once. Read-outs that look alike come from different tables or passages of the source.

Columns and labels:
[1] = Stability investigation by NMR spectroscopy (hydrolysis in buffer/media); type: physicochemical; details: for Hydrolysis/Stability pH 7.5: 10 mM Hepes or 10 mM Tris, pH 7.4; for Hydrolysis/Stability pH 7.5 / Hydrolysis/Stability pH 5.5: 107 mM NaCl; for Hydrolysis/Stability pH 5.5: 10 mM Mes
Text: POMs of the globular Keggin and planar Anderson archetype and with varying charge status from -3 to -8 (Fig. 1) were selected. To offset the known [XW12O40]^n- (X = hetero-ion) hydrolysis propensity in aqueous solution, most pronounced at neutral pH, more highly charged mixed-metal derivatives (Fig. 1,lefthand side) were also included. The latter are obtained by hydrolytic removal of one W=O^4+ unit from the Keggin structure and the subsequent incorporation of an addenda metal to fill the cavity of the monolacunary intermediate. In detail, the following POM anions were studied (as acid or sodium, potassium, or tetraalkylammonium salts), see Fig. 1: [α-P^VW^VI12O40]^3- ([PW12]^3-), [α-Si^IVW^VI12O40]^4- ([SiW12]^4-), [α-Al^IIIW^VI12O40]^5- ([AlW12]^5-), [α-P^VV^VW^VI11O40]^4- ([PVW11]^4-), [α-Si^IVMo^VIW^VI11O40]^4- ([SiMoW11]^4-), [α- HAl^IIIGe^IVW^VI11O39(H2O)]^5- ([GeAlW11]^5-), [{α-P^VW^VI11O39Zr^IV(µ-OH)(H2O)}2]^8- ([(PZrW11)2]^8-), and [Al^III(OH)6Mo^VI6O18]^3- ([AlMo6]^3-). First, their long-term (24 h and longer) stability in aqueous solution (slightly acidic and neutral) was investigated by applying the active NMR nuclei in their composition (see).

[2] = Transport experiments in CF-loaded zwitterionic EYPC vesicles (CF fluorescence, Hill analysis); type: biochemical; details: for cargo transport in CF-loaded vesicles (qualitative): LUVs loaded with CF, added cargo; for onset for transport activity (carrier concentration): vesicles, Fig. 4
Protocol: The dry film was rehydrated with 1 mL buffer (50 mM CF, 10 mM Hepes, pH 7.4 or 50 mM CF, 10 mM Tris, pH 7.4) for 30 min at room temperature, subjected to freeze-thaw cycles (7 times) and extrusions (15 times) through a polycarbonate membrane (pore size 100 nm). Extravesicular components were removed by size exclusion chromatography (NAP-25 column Sephadex G-25 DNA grade) with 10 mM Hepes, 107 mM NaCl, pH 7.4 or 10 mM Hepes, 107 mM NaCl, pH 7.4. Phospholipid concentration was calculated by the Stewart assay. […]
Vesicles stock solutions (5-10 µL) were diluted with the corresponding buffer in a disposable plastic cuvette and gently stirred (total volume 2000 µL, final lipid concentration 13 µM). […] Fluorescence intensities were normalized to fractional emission as: I(t) = (It −I0)/(I∞ −I0) [formula]
Where I0 = It before POM addition and […] = I∞ after lysis. For Hill analysis, It before lysis was defined as transport activity, Y, and plotted against POM concentration, c, and fitted to the Hill equation (2), to afford the activity in absence of POM, Y0, the maximal activity, Ymax, the concentration needed to achieve 50 % of maximal activity, EC50, and the Hill coefficient, n. Y = Y0 + (Ymax −Y0)/(1 + (((EC50)/(c)))^n) [formula]
In the transport measurements, where different carriers (POMs) are tested with the same cargo, the activator efficiency (E) is determined by their capacity to transport the impermeable cargo to the intravesicular region and is characterized by Ymax, its maximal activity, and EC50, the effective activator concentration. An ideal carrier reaches high Ymax at low EC50. To count both factors, the activator efficiency is defined as: E = Ymax (pEC50)/(f) [formula] were pEC50 is the negative logarithm of the EC50, and fa scaling factor, which was set to 20.6 to calibrate the highest (previously known) activation efficiency, E, as 10.
The capability of POMs to act as membrane carriers was explored first in large unilamellar vesicles (LUVs), loaded with carboxyfluorescein (CF). We selected […] representative cationic peptides, heptaarginine (heptaArg), heptalysine (heptaLys), protamine, and polyarginine (polyArg), as test cargos. Inside the LUVs, the CF dye was encapsulated at self-quenching concentrations. With a suitable carrier, heptaArg can be taken up into the vesicles, bind with entrapped CF, and shuttle back to the exterior, spreading the previously quenched CF, and thereby restoring its fluorescence (Fig. 3). In the time-resolved fluorescence experiments, to test whether a POM acts as molecular carrier, the CF emission was continuously monitored during the addition of the inorganic carrier (t = 60 s) and after injection the impermeable heptaArg (t = 120 s). At the end of the experiment (t = 600 s), the surfactant Triton X-100 was added to release all the entrapped CF and allow normalization of the intensity data (Fig. 4a).

CHO-K1 cells = experiment: Cellular viability assay (MTT assay, resazurin readout); type: cell-based; details: 10 µM and below, after 24 h
Protocol: For MTT assays in presence of activators, CHO-K1 cells were incubated in Ham's F-12 medium containing 10 % fetal bovine serum and 1.0 % penicillin streptomycin at 37 °C in a 5 % CO2 for 24 hours. CHO-K1 cells were dispersed in a 96-well flat bottom tissue culture treated plates (Eppendorf) at density of 5×10^3 cells/well (per 100 µL) and incubated in Ham's F-12 containing 10 % (v/v) fetal bovine serum at 37 °C in a 5 % CO2 incubator for 12 h to allow cell adhesion. Then, cells were incubated with POM, B12Br12^2-, or PyBu (10 µM, 50 µM, 100 µM) for another 24 h. After this incubation time, 20 µL resazurin solution (0.15 mg/mL) was added to cells and incubated for another 3 h. Finally, the plates were read at λem = 590 nm (λex = 560 nm) using a JASCO fluorometer FP-8500.
The cell viability was evaluated by the following equation: Cells viability = (FIsample −FIblank)/(FIcontrol −FIblank) × 100% [formula]
Where, FIsample is the fluorescence intensity of cells incubated with different compounds, FIblank is the fluorescence intensity of medium, and FIcontrol is the fluorescence intensity of cells in absence of any compound.

[3] = Nutrient mixture F-12 Ham after incubation for 1 h at 37 °C
[4] = EYPC (zwitterionic), 13 µM phospholipids, 10 µM heptaLys
[5] = EYPC (zwitterionic), 13 µM phospholipids, 10 µM heptaLys, read-out: EC50
[6] = EYPC vesicles, 0.1 µM polyArg, acidic pH 5.5
[7] = EYPC vesicles, 0.1 µM polyArg, neutral pH 7.4
[8] = EYPC vesicles, 0.1 µM polyArg, neutral pH 7.4, read-out: PolyArg EC50
[9] = EYPC vesicles, 1 µM Protamine, acidic pH 5.5
[10] = EYPC vesicles, 1 µM protamine, neutral pH 7.4
[11] = EYPC vesicles, 1 µM protamine, neutral pH 7.4, read-out: Protamine EC50
[12] = EYPC vesicles, 10 µM heptaArg, neutral pH 7.4, E = Ymax(pEC50/f), f = 20.6
[13] = EYPC vesicles, 10 µM heptaArg, neutral pH 7.4, read-out: HeptaArg EC50

| Hydrolysis/Stability pH 5.5 [1] | EC50 [2, 5] [µM] | EC50 [2, 8] [µM] | EC50 [2, 11] [µM] | EC50 [2, 13] | Substance | Hydrolysis/Stability pH 7.5 [1] | POM anions with % for parent (active) anion based on signals integration [1, 3] | E (activation efficiency) [2, 4] | Ymax [2, 4] [%] | PolyArg E (activation efficiency) [2, 7] | PolyArg Ymax [2, 7] [%] | Protamine E (activation efficiency) [2, 10] | Protamine Ymax [2, 10] [%] | HeptaArg E (activation efficiency) [2, 12] | cargo transport in CF-loaded vesicles (qualitative) [2] | onset for transport activity (carrier concentration) [2] | viability (CHO-K1 cells) [%] | also measured |
| --- | --- | --- | --- | --- | --- | --- | --- | --- | --- | --- | --- | --- | --- | --- | --- | --- | --- | --- |
| stable | 22 | 13 | 19 | 16.5 µM and 17 µM | K4[α-Si^IVMo^VIW^VI11O40]·24H2O [[SiMoW11]^4-] | stable | [Si^IVMo^VIW^VI11O40]^4- | 4.4 | 54 | 8.6 | 94 | 6.0 | 72 | 5.7 | triggered the desired increase in fluorescence characteristic for cargo transport | around 1 µM | ~80 | POM anions with % for parent (active) anion based on signals integration ([1]; Mes pH 5.5 (time not given)): [Si^IVMo^VIW^VI11O40]^4-; POM anions with % for parent (active) anion based on signals integration ([1]; Tris-HCl pH 7.5 (time not given)): [Si^IVMo^VIW^VI11O40]^4-; PolyArg E (activation efficiency) [2, 6]: 9.7; PolyArg Ymax [2, 6]: 86%; EC50 ([2]; EYPC vesicles, 0.1 µM polyArg, acidic pH 5.5, read-out: PolyArg EC50): 5 µM; Protamine E (activation efficiency) [2, 9]: 7.3; Protamine Ymax [2, 9]: 80%; EC50 ([2]; EYPC vesicles, 1 µM Protamine, acidic pH 5.5, read-out: Protamine EC50): 14 µM; HeptaArg E (activation efficiency) ([2]; EYPC vesicles, 10 µM heptaArg, acidic pH 5.5): 6.6; HeptaArg Ymax ([2]; EYPC vesicles, 10 µM heptaArg, acidic pH 5.5 (10 mM Mes, 107 mM NaCl)): 66%; HeptaArg Ymax ([2]; EYPC vesicles, 10 µM heptaArg, neutral pH 7.4): 66% |
| stable | 38 | 12 | 41 | 49 µM | K4[α-P^VV^VW^VI11O40]·4H2O [[PVW11]^4-] | 20 % to [P^VW^VI11O39]^7- and 20 % hydrolyzed to [P^VW^VI11O39]^7 | [P^VW^VI11O39]^7- (coordinated to different alkali and earth alkali metals leading to different shifts) and [P^VV^VW^VI11O40]^4- (16 %) | 4.3 | 62 | 8.2 | 88 | 5.9 | 88 | 5.3 | triggered the desired increase in fluorescence characteristic for cargo transport | around 1 µM | ~80 | POM anions with % for parent (active) anion based on signals integration ([1]; D2O): [P^VV^VW^VI11O40]^4-; % of hydrolysis product [P^VW^VI11O39]^7- based on signals integration ([1]; Mes pH 5.5 after 1 day): 1%; POM anions with % for parent (active) anion based on signals integration ([1]; Mes pH 5.5 after 1 day): 99%; % of hydrolysis product [P^VW^VI11O39]^7- based on signals integration ([1]; Mes pH 5.5 after 5 days): 1%; POM anions with % for parent (active) anion based on signals integration ([1]; Mes pH 5.5 after 5 days): 99%; % of hydrolysis product [P^VW^VI11O39]^7- based on signals integration ([1]; Mes pH 5.5 freshly prepared): 1%; POM anions with % for parent (active) anion based on signals integration ([1]; Mes pH 5.5 freshly prepared): 99%; POM anions with % for parent (active) anion based on signals integration ([1]; Nutrient mixture F-12 Ham freshly prepared): [P^VW^VI11O39]^7- (coordinated to different alkali and earth alkali metals leading to different shifts) and [P^VV^VW^VI11O40]^4- (43 %); POM anions with % for parent (active) anion based on signals integration ([1]; Tris-HCl pH 7.5 after 1 day): [P^VW^VI11O39]^7- and [P^VV^VW^VI11O40]^4- (71 %); POM anions with % for parent (active) anion based on signals integration ([1]; Tris-HCl pH 7.5 after 5 days): [P^VW^VI11O39]^7- and [P^VV^VW^VI11O40]^4- (68 %); POM anions with % for parent (active) anion based on signals integration ([1]; Tris-HCl pH 7.5 freshly prepared): [P^VW^VI11O39]^7- and [P^VV^VW^VI11O40]^4- (81 %); hydrolysis on long time scales at neutral pH ([1]; neutral pH, after 24 h): ca. 20% |
